Tests used:
[1] = tested on: patients with PoPH; experiment: PORTICO: 6-minute walk test (6MWD); format: in vivo, human
Experimental: (iv) 6-minute walk test, including Borg dyspnea index: The 6MWT was performed at Screening, Baseline (Visit 2/Randomization), and then every Visit until EOT-DB or EOT-OL, whichever came last. It is a non-encouraged test that measures the distance walked by the patient in six minutes. It is important that for each individual patient the 6MWT was conducted under the same conditions throughout the study (e.g., same location, same tester, same time of day, with or without nasal oxygen therapy and where applicable with same flow rate as Baseline). The Borg dyspnea index was evaluated after each 6MWT. It rates dyspnea on a scale from 0 to 10.
Handling of missing data: For change from baseline to Weeks 4, 8 and 12 in 6MWD and WHO FC, the last available value (including baseline) was carried forward unless the patient died before, or on Day 42, 70, 98 (the upper limit treatment days of Weeks 4, 8 and 12 windows, respectively), in which case the following rules considering worst case were used to replace all the missing values from the week after death up to Week 12: • For 6MWD, worst fixed value was set to 0, • For WHO FC, worst fixed value was set to class IV, • For change from baseline to Week 12 in NT-proBNP, the same imputation rule as for PVR was applied as described herein.
Statistical analysis: The change from baseline to Week 12 in mRAP, mPAP, cardiac index, TPR and SVO2 were analyzed on the FAS (with imputation) using an ANCOVA with factors for treatment group, background PAH-specific therapy at baseline (Yes/No as per IXRS, randomization stratification factor), region (Europe/North America/Latin America as per IXRS, randomization stratification factor) and a covariate for baseline corresponding variable. Other RHC variables are listed only. WHO FC is summarized on the FAS (with imputation) by time point and treatment group using frequency tables. Changes from baseline in WHO FC were dichotomized as worsening (i.e., change >0) versus no change or improvement (i.e., change ≤0). Worsening was analyzed using a logistic regression model (exact) with covariates for treatment group, background PAH-specific therapy at baseline (Yes/No as per IXRS, randomization stratification factor) and region (Europe/North America/Latin America as per IXRS, randomization stratification factor). 6MWD is summarized on the FAS (with imputation) by time point and treatment group using descriptive statistics. Change from baseline to each time point is summarized similarly. Change from baseline in 6MWD (up to Week 12) was analyzed using a mixed-effect model repeated measure (MMRM) with factors for treatment group, time point, treatment by time interaction, background PAH-specific therapy at baseline (Yes/No as per IXRS, randomization stratification factor) and region (Europe/North America/Latin America as per IXRS, randomization stratification factor), and covariates for baseline 6MWD and WHO FC. An unstructured covariance matrix was used to account for the correlation between repeated measurements from the same patient. NT-proBNP is summarized on the FAS (with imputation) by time point and treatment group using descriptive statistics as well as geometric means and CVs. The ratio of Week 12 to baseline NT-proBNP is summarized similarly. The ratio versus baseline in NT-proBNP was log-transformed and analyzed using an ANCOVA with covariates for treatment group, background PAH-specific therapy at baseline (Yes/No as per IXRS, randomization stratification factor), region (Europe/North America/Latin America as per IXRS, randomization stratification factor) and baseline log NT-proBNP.
Supportive/sensitivity analyses: The main MMRM model analysis for 6MWD was also performed without stratification factors. […]

[2] = tested on: patients with PoPH; experiment: PORTICO: hepatic venous pressure gradient by hepatic vein catheterization; format: in vivo, human; settings: macitentan group n=15, no TIPS
Experimental: (ii) Hemodynamic measurements—hepatic vein catheterization: HVPG, the difference between portal pressure and hepatic pressure, was measured by HVC at Baseline (Visit 1/Screening) and Week 12, or at permanent discontinuation of DB study treatment if prior to Week 12 (at the investigator's discretion). Where possible, HVPG was measured at the same time as RHC. The second measurement during the study was required to be performed within 1 week prior to EOT-DB if it was not possible to perform the HVC on the same day as the RHC. HVPG measurements were performed after at least 4 hours of fasting, at rest, in the supine position, under local anesthesia and mild sedation. A catheter introducer was placed into the right jugular vein (or femoral) using the Seldinger technique. It was used to advance a balloon-tipped catheter into the main right hepatic vein for repeated measurements of wedged (occluded) and free hepatic venous pressures. Intravascular pressures were measured using highly sensitive pressure transducers, calibrated before each measurement. HVPG was calculated as the difference between wedged and free hepatic venous pressures. […] The mean of these two measurements was considered final. […]

[3] = tested on: endothelin A and B receptors; settings: nonclinical in vivo studies; cited from earlier work
[4] = 10 mg o.d., FAS with imputation, N=43
[5] = MTS without imputation, macitentan in both DB and OL periods
[6] = MTS without imputation, macitentan only in OL period (DB placebo patients)

For `CCCNS(=O)(=O)Nc1ncnc(OCCOc2ncc(Br)cn2)c1-c1ccc(Br)cc1` [macitentan, N-[5-(4-Bromophenyl)-6-[2-[(5-bromo-2-pyrimidinyl)oxy]ethoxy]-4-pyrimidinyl]-N′-propylsulfamide], the “6MWD at Week 4, mean ± SD” value [1, 4] was 392.5 ± 93.74 m, the “6MWD at Week 8, mean ± SD” value [1, 4] was 390.3 ± 99.35 m and the “6MWD at Week 12, mean ± SD” value [1, 4] was 392.2 ± 98.46 m. For the same molecule, the “Change from baseline to Week 4 in 6MWD, mean ± SD” value [1, 4] was 6.7 ± 44.55 m, the “Change from baseline to Week 8 in 6MWD, mean ± SD” value [1, 4] was 4.5 ± 67.40 m and the “Change from baseline to Week 12 in 6MWD, mean ± SD” value [1, 4] was 6.4 ± 65.74 m. The “LS mean difference (macitentan-placebo), change in 6MWD to Week 12, ANCOVA sensitivity analysis” value ([1]; FAS) was 10.05 m, the “Difference in LS means macitentan-placebo, change in 6MWD at Week 4” value ([1]; MMRM, FAS) was 23.02 m and the “Difference in LS means macitentan-placebo, change in 6MWD at Week 8” value ([1]; MMRM, FAS) was 14.47 m. For the same molecule, the “Difference in LS means macitentan-placebo, change in 6MWD at Week 12” value ([1]; MMRM, FAS) was 9.73 m, the “Difference in LS means macitentan-placebo, change in 6MWD, overall” value ([1]; MMRM, FAS, Weeks 4-12 overall) was “Overall: 15.74 m” and the “Mean (±SD) change from baseline in 6MWD at Week 4” value [1, 5] was 7.0±45.62 m. The “Mean (±SD) change from baseline in 6MWD at Week 24” value [1, 5] was 22.0±42.55 m, the “Mean (±SD) change from macitentan baseline in 6MWD at Week 4” value [1, 6] was 11.5±31.67 m and the “Mean (±SD) change from macitentan baseline in 6MWD at Week 12” value [1, 6] was 13.9±39.27 m. For the same molecule, the “Mean (±SD) observed difference at Week 12 (macitentan-placebo) in 6MWD” value ([1]; no imputation) was 18.4 m, the “Increase in walk distance from baseline to Week 24” value ([1]; patients originally randomised to macitentan, followed into open-label period) was 20 m and the “HVPG (central review) mean change from baseline at Week 12” value [2] was −0.5 mmHg. For the same molecule, the “Potency compared with bosentan” value [3] was “higher potency than bosentan”.
